What was measured:
Fusarium solani = assay: Mycelial growth test; format: cell-based; conditions: for inhibition at 5 ppm / inhibition at 10 ppm / inhibition at 20 ppm / inhibition at 40 ppm: Fusarium solani, 72 h; for inhibition at 5 ppm / inhibition at 10 ppm / inhibition at 20 ppm: read-out: Percent Fungus Growth Inhibition; for inhibition at 40 ppm: read-out: Percent Fungus Growth Inhibition, PS, 40 ppm, 72 hours
Uromyces phaseoli = assay: whole plant or invertebrate; conditions: foliar, 24 h, read-out: Percent Disease Control, curative, bean rust

Row | SMILES | inhibition at 5 ppm (Fusarium solani; PS, 72 hours) [%] | inhibition at 10 ppm (Fusarium solani; PS, 10 ppm, 72 hours) [%] | inhibition at 20 ppm (Fusarium solani; PS, 72 hours) [%] | inhibition at 40 ppm (Fusarium solani) [%] | pest or weed control at 150 ppm (Uromyces phaseoli) [%] | Percent Fungus Growth Inhibition (Fusarium solani; PS, 10 ppm, 72 hours) [%]
1 | O=c1c(Cl)nsnc1Oc1ccccc1 [Compound 2, 3-chloro-5-phenoxy-4H--1,2,6-thiadiazin-4-one] | 53 | 65 | 76 | 100 | 0 | –
2 | Cc1cc(Oc2nsnc(Cl)c2=O)cc(C)c1Br [Compound 60, 3-[(4-bromo-3,5-dimethyl)-phenoxy]-5-chloro-4H--1,2,6-thiadiazin-4-one] | 63 | 50 | 56 | 75 | 0 | –
3 | Cc1ccc(Cl)c(Oc2nsnc(Cl)c2=O)c1 [Compound 56, 3-chloro-5-[(2-chloro-5-methyl)phenoxy]-4H--1,2,6-thiadiazin-4-one] | 70 | 100 | 100 | 100 | 100 | –
4 | Cc1cc(C)cc(Oc2nsnc(Cl)c2=O)c1 [Compound 25, 3-chloro-5-(3,5-dimethylphenoxy)-4H--1,2,6-thiadiazin-4-one] | 50 | 100 | 100 | 100 | 0 | –
5 | Nc1ccc(Oc2nsnc(Cl)c2=O)cc1 [Compound 26, 5-(4-aminophenoxy)-3-chloro-4H--1,2,6-thiadiazin-4-one] | 13 | – | 17 | 42 | 0 | 33
6 | O=c1c(Cl)nsnc1Oc1cccc2ccccc12 [Compound 32, 3-chloro-5(1-naphthoxy)-4H-1,2,6-thiadiazin-4-one] | 100 | 100 | 100 | 100 | 0 | –
7 | O=C(Nc1ccccc1)Nc1ccc(Oc2nsnc(Cl)c2=O)cc1 [Compound 29, 3-chloro-5-[4-(3-phenylureido)-phenoxy]-4H--1,2,6-thiadiazin-4-one] | 0 | 0 | 0 | 13 | 0 | –
8 | O=c1c(Cl)nsnc1Oc1ccccc1Br [Compound 34, 3-chloro-5-(2-bromophenoxy)-4H-1,2,6,-thiadiazin-4-one] | 13 | 43 | 50 | 100 | 0 | –
9 | O=c1c(Cl)nsnc1Oc1ccc(Br)cc1 [Compound 15, 3-chloro-5-(4-bromophenoxy)-4H--1,2,6-thiadiazin-4-one] | 0 | 42 | 42 | 83 | 90 | –
10 | O=c1c(Cl)nsnc1Oc1c(Cl)c(Cl)c(Cl)c(Cl)c1Cl [Compound 31, 3-chloro-5-(pentachlorophenoxy)-4H--1,2,6-thiadiazine-4-one] | 42 | 42 | 58 | 58 | 0 | –
11 | Cc1ccc(Oc2nsnc(Cl)c2=O)c(C)c1 [Compound 23, 3-chloro-5-(2,4-dimethylphenoxy)-4H--1,2,6-thiadiazin-4-one] | 17 | 33 | 100 | 100 | 0 | –
12 | COc1cc(Oc2nsnc(Cl)c2=O)cc(OC)c1C(C)=O [Compound 61, 3-[(4-acetyl-3,5-dimethoxy)-phenoxy]-5-chloro-4H--1,2,6-thiadiazin-4-one] | 16 | 46 | 23 | 0 | 0 | –
13 | Cc1ccc(Oc2nsnc(Cl)c2=O)c(Br)c1 [Compound 57, 3-[(2-bromo-4-methyl)-phenoxy]-5-chloro-4H--1,2,6-thiadiazin-4-one] | 88 | 100 | 100 | 100 | 0 | –
14 | CC(=O)Nc1ccc(Oc2nsnc(Cl)c2=O)cc1 [Compound 8, 5-(4-acetylaminophenoxy)-3-chloro-4H--1,2,6-thiadiazin-4-one] | 3 | 41 | 31 | 31 | 0 | –
15 | CSc1ccc(Oc2nsnc(Cl)c2=O)cc1 [Compound 39, 3-chloro-5-[(4-methylthio)phenoxy]-4H-1,2,6,-thiadiazin-4-one] | 42 | 79 | 68 | 42 | 0 | –
16 | O=C(O)c1ccc(Oc2nsnc(Cl)c2=O)cc1 [Compound 50, 3-(4-carboxyphenoxy)-5-chloro-4H--1,2,6-thiadiazin-4-one] | 25 | 38 | 63 | 100 | 0 | –
17 | CNC(=O)Nc1ccc(Oc2nsnc(Cl)c2=O)cc1 [Compound 28, 3-chloro-5-[4-(3-methylureido)-phenoxy]-4H--1,2,6-thiadiazin-4-one] | 0 | 17 | 17 | 13 | 0 | –
18 | CC(=O)Nc1cccc(Oc2nsnc(Cl)c2=O)c1 [Compound 42, 3-[(3-N--acetylamino)-phenoxy]-5-chloro-4H--1,2,6-thiadiazin-4-one] | 31 | 19 | 13 | 38 | 0 | –
19 | O=c1c(Cl)nsnc1Oc1c(Cl)cccc1Cl [Compound 18, 3-chloro-5-(2,6-dichlorophenoxy)-4H--1,2,6-thiadiazin-4-one] | 41 | 50 | 75 | 75 | 0 | –
20 | Cc1cc(Cl)c(Oc2nsnc(Cl)c2=O)cc1C [Compound 58, 3-chloro-5-[(2-chloro-4,5-dimethyl)phenoxy]-4H--1,2,6-thiadiazin-4-one] | 56 | 56 | 56 | 44 | 0 | –
21 | O=c1c(Cl)nsnc1Oc1cccc(Cl)c1Cl [Compound 19, 3-chloro-5-(2,3-dichlorophenoxy)-4H--1,2,6-thiadiazin-4-one] | 50 | 66 | 81 | 100 | 100 | –
22 | O=c1c(Cl)nsnc1Oc1ccc(Cl)cc1 [Compound 12, 3-chloro-5-(4-chlorophenoxy)-4H--1,2,6-thiadiazin-4-one] | 71 | 59 | 65 | 100 | 0 | –
23 | O=c1c(Cl)nsnc1Oc1ccc(O)cc1 [Compound 35, 3-chloro-5-(4-hydroxyphenoxy)-4H-1,2,6-thiadiazin-4-one] | 30 | 35 | 60 | 80 | 0 | –
24 | O=C(O)Cc1ccccc1Oc1nsnc(Cl)c1=O [Compound 45, 3-(2-carboxymethylphenoxy)-5-chloro-4H--1,2,6-thiadiazin-4-one] | 0 | 0 | 6 | 31 | 0 | –
25 | CCCCOc1ccc(Oc2nsnc(Cl)c2=O)cc1 [Compound 6, 3-chloro-5-(4-n-butoxyphenoxy)-4H--1,2,6-thiadiazin-4-one] | 0 | 0 | 0 | 13 | 90 | –
26 | N#Cc1ccc(Oc2nsnc(Cl)c2=O)cc1 [Compound 10, 3-chloro-5-(4-cyanophenoxy)-4H--1,2,6-thiadiazin-4-one] | 17 | 33 | 50 | 75 | 0 | –
27 | Cc1cc(Oc2nsnc(Cl)c2=O)ccc1Cl [Compound 54, 3-chloro-5-(4-chloro-3-methylphenoxy)-4H--1,2,6-thiadiazin-4-one] | 27 | 30 | 20 | 20 | 0 | –
28 | C[S+]([O-])c1ccc(Oc2nsnc(Cl)c2=O)cc1 (stereo not drawn) [Compound 40, 3-chloro-5-[(4-methylsulfinyl)phenoxy]-4H-1,2,6,-thiadiazin-4-one] | 5 | 16 | 26 | 53 | 0 | –
29 | O=c1c(Cl)nsnc1Oc1ccc(Cl)cc1Cl [Compound 17, 3-chloro-5-(2,4-dichlorophenoxy)-4H--1,2,6-thiadiazin-4-one] | 50 | 75 | 100 | 100 | 100 | –
30 | O=c1c(Cl)nsnc1Oc1cc(Cl)cc(Cl)c1 [Compound 20, 3-chloro-5-(3,5-dichlorophenoxy)-4H--1,2,6-thiadiazin-4-one] | 59 | 66 | 100 | 69 | 0 | –

Reference: patent US4450269A, “Mono-5-substituted-3-chloro-4H-1,2,6-thiadiazin-4-one antifungal agents” (FMC Corporation, priority 1980, dated 1984)
